Measured values taken from patent US8034314B2, “Photoreactive compound specifically binding to calcium binding proteins” (priority 2004, dated 2011).

Columns and labels:
[1] = test system: mitochondrial uniporter (Ca2+ uptake in mitochondria); assay: Ca2+ uptake/accumulation in isolated mitochondria; assay type: biochemical, rat; settings: no UV; mean ± SEM of 3 to 5 experiments
Method: (§1) Sarcoplasmic reticulum (SR) membranes were prepared from rabbit fast twitch skeletal muscle as described by Saito [Saito et al.: J. Cell Biol. 99 (1984) 875-85]. Mitochondria were isolated from rat liver as described by us previously [Gincel D. et al.: Biochem J. 358 (2001) 147-55]. VDAC was purified by a method developed in our laboratory, using columns of hydroxyapatite and reactive red agarose [Gincel D. et al.: J. Bioenerget. Biomembr. 32 (2000) 571-83].
Ca^2+-accumulation in freshly prepared mitochondria (0.5 mg/ml) was assayed for 1 to 20 minutes at 30° C. in the presence of 225 mM mannitol, 75 mM sucrose, 120 μM CaCl2 (containing 3×10^4 cpm/nmol ^45Ca^2+), 5 mM HEPES/KOH pH 7.0, and 5 mM succinate with 0.1 mM Pi, or 4 mM MgCl2 with 3 mM ATP. The Ca^2+-uptake was terminated by rapid Millipore filtration, followed by a wash with 5 ml of 0.15 M KCl. The Ca^2+-accumulation in SR was determined as described previously [Shoshan-Barmatz V. & Shaineberg A.: Biochim. Biophys. Acta 1065 (1991) 82-8]. Electron transport from succinate to cytochrome c was described in above cited article [Gincel D. et al.: J. Bioenerget. Biomembr. 32 (2000) 571-83].
The effect of AzRu on mitochondrial process of electron transport from the donor succinate to the acceptor cytochrome c was characterized as described above. Although said electron transfer involves several dozens electron transfer carriers, this reaction was not affected by azido-ruthenium of this invention.
(§2) The hexavalent RuR and the trivalent Ru360 have been employed in various studies as inhibitors of Ca^2+-dependent reactions. As shown here, even with no photoactivation, AzRu, in contrast to RuR and Ru360, was effective in inhibiting the SR Ca^2+-pump (Table 3). […] This may open the way to inhibit other Ca^2+-dependent activities that are not sensitive to RuR, such as the plasma membrane Ca^2+-ATPase. […] RuR was employed to improve mitochondrial production in ischemic reperfused pig myocardium, was employed in the nervous system to follow neuronal death progress and can act as an anti-oxidant in certain conditions. Considering the potent activity of AzRu in RuR-insensitive reactions (see Table 3), its applications in various biological studies should be explored. Ca^2+ accumulation in SR and mitochondria was assayed as described above in the absence and presence of different concentrations of RuR (0.05-100 μM), Ru360 (0.01-100 μM) or AzRu (0.1-100 μM). The concentration required for 50% inhibition (IC50) was derived from the plot of Ca^2+ accumulation activity or ryanodine binding as a function of the reagent concentration. The results are the mean±SEM of 3 to 5 experiments (Table 3).

[2] = target: T1, ryanodine receptor (RyR) / Ca2+-release channel (Oryctolagus cuniculus, UniProt P11716); assay: [3H]ryanodine binding to SR membranes; set-up: species or system rabbit; settings: no UV; mean ± SEM of 3 to 5 experiments
T1 construct: from tissue; host or cells: rabbit fast twitch skeletal muscle SR membranes
Method: as §1
For the determination of [^3H]ryanodine binding, SR membranes were incubated for 20-60 min at 37° C. in a standard binding solution containing 1M NaCl, 20 mM MOPS (pH 7.4), 50 μM free Ca^2+ and 20 nM [^3H]ryanodine. Unbound ryanodine was separated from protein-bound ryanodine by vacuum filtration of the sample through nitrocellulose filters (0.45 μm), followed by two washes with 4 ml ice-cold buffer containing 0.2 M NaCl, 10 mM MOPS (pH 7.4) and 50 μM CaCl2. The retained radioactivity in the dried filters was determined by liquid scintillation counting. Specific binding of [^3H]ryanodine was defined as the difference between the binding in the presence of 20 nM [^3H]ryanodine and in the presence of 20 μM unlabeled ryanodine.
as §2

T1 sequence (P11716 whole entry): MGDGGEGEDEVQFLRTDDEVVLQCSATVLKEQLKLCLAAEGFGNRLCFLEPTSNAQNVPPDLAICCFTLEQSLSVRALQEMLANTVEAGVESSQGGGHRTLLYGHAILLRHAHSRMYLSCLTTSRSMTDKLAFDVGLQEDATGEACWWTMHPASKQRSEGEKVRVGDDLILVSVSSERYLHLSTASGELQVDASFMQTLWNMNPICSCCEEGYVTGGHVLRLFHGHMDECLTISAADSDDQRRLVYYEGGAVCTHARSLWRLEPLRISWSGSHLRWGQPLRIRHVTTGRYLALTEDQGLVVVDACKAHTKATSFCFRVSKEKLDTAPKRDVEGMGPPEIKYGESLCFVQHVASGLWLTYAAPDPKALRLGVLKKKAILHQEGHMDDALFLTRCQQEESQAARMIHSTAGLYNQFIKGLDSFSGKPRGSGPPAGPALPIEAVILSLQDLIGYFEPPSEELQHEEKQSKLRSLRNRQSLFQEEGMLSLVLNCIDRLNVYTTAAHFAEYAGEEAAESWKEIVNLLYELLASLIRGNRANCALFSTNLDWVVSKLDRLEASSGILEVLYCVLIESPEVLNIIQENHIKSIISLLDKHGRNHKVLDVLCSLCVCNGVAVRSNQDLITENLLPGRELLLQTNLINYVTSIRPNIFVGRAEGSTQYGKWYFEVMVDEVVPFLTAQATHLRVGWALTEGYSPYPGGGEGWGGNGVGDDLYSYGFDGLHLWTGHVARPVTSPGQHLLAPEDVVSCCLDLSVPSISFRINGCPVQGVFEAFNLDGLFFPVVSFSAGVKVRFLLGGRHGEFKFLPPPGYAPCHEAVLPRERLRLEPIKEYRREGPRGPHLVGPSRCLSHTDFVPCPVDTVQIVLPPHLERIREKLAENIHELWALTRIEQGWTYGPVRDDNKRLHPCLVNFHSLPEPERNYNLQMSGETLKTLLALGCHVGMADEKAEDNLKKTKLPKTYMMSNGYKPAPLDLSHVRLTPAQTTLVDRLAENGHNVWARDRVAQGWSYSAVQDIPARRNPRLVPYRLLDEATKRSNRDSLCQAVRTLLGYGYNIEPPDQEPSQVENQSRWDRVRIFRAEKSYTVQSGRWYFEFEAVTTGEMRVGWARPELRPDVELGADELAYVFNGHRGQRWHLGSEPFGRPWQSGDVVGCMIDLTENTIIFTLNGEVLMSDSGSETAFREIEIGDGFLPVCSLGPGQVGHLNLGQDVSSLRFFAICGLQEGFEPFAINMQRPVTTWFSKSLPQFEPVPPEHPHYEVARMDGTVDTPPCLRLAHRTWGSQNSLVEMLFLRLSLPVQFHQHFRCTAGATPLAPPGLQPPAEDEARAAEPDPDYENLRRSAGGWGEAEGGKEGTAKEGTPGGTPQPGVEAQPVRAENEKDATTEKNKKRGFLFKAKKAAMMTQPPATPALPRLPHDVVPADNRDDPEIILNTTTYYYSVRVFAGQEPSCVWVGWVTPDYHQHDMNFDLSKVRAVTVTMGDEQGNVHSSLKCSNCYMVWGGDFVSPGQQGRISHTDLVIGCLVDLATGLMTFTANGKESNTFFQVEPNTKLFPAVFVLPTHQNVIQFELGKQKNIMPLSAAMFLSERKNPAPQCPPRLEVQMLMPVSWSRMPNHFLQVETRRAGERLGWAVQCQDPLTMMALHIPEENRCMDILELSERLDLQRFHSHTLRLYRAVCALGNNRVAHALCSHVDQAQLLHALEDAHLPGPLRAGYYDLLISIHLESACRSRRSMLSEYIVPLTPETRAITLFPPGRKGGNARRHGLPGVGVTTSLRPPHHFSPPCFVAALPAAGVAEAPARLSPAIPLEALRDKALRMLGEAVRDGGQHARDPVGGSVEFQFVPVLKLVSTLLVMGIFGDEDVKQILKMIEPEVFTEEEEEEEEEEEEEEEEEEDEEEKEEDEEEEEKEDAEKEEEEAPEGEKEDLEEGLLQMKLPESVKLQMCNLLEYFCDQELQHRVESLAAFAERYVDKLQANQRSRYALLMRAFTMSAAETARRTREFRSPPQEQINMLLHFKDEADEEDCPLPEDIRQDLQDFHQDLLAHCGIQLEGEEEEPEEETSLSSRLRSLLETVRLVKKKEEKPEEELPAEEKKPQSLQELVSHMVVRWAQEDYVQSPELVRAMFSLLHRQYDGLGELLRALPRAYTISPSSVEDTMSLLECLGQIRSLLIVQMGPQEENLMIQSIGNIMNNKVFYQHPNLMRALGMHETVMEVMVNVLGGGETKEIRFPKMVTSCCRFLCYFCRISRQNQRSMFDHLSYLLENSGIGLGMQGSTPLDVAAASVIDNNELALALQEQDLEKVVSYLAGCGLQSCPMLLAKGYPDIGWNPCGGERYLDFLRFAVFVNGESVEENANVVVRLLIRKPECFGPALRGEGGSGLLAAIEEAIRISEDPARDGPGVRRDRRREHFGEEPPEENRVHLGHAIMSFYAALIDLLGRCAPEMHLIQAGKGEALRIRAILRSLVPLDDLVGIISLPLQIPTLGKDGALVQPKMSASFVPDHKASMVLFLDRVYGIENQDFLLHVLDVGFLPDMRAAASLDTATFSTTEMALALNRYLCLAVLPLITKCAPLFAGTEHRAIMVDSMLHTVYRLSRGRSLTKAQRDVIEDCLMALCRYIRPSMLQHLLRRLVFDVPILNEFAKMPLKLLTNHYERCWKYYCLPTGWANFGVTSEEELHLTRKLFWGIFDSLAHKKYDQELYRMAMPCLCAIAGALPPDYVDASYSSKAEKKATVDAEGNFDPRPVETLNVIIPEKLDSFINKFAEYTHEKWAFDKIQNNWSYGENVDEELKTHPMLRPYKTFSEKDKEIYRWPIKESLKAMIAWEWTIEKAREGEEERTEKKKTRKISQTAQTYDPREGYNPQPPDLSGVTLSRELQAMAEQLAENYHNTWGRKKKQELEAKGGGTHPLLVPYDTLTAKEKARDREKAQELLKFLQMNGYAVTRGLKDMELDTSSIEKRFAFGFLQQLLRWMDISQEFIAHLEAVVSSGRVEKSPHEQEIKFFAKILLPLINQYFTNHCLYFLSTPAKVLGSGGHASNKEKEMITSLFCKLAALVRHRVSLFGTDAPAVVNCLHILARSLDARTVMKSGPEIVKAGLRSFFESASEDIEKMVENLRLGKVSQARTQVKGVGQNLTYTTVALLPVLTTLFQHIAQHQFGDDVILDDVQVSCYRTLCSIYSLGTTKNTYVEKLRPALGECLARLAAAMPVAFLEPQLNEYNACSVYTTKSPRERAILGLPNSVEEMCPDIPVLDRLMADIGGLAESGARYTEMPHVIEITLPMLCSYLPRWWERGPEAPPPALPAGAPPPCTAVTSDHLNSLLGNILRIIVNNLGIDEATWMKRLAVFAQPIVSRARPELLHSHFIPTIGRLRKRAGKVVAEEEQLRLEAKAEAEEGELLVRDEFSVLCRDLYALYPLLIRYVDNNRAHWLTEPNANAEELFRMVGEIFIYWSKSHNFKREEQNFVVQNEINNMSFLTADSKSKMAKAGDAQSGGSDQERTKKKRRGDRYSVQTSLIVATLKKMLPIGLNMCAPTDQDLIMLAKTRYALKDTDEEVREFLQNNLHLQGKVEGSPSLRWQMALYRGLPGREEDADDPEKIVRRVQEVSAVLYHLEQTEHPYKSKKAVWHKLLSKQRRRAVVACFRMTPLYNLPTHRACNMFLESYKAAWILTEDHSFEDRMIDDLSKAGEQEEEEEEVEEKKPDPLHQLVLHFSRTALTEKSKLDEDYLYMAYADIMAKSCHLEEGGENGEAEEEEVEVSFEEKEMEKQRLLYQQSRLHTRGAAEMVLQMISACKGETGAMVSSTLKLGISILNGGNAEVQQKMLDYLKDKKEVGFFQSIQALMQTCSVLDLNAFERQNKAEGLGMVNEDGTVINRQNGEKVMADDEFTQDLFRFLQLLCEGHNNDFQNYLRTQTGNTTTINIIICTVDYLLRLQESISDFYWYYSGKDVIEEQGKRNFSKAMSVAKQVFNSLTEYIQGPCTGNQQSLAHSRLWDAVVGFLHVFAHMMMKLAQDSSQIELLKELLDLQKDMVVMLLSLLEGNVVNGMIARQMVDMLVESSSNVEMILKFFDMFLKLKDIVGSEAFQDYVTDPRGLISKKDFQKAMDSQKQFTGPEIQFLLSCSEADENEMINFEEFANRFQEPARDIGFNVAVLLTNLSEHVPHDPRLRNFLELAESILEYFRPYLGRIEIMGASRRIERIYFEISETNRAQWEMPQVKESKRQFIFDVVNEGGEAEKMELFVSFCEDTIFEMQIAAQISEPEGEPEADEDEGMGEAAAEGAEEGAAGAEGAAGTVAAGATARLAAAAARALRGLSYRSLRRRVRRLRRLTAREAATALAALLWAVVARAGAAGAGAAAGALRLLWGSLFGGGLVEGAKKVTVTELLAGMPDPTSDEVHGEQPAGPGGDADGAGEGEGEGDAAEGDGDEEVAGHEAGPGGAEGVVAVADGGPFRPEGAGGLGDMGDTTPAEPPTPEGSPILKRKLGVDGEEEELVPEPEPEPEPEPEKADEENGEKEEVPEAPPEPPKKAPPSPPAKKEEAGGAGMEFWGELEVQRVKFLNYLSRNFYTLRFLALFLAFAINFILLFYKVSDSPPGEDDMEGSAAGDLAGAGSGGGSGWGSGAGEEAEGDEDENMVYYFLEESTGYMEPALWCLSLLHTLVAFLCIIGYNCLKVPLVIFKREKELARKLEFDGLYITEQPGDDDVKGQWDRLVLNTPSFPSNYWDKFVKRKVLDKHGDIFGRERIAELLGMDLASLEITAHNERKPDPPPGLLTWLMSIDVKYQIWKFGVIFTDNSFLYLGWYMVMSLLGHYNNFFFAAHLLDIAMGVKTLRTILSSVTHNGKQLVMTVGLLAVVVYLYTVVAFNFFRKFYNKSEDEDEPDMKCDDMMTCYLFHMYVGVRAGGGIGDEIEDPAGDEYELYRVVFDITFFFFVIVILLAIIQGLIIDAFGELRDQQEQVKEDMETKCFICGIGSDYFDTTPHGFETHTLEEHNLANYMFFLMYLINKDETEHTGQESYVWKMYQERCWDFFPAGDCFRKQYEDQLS

## Ru360 [reference compound]
[1]
  IC50: 0.067 ± 0.008 µM
[2]
  IC50: 14.8 ± 2.8 µM

## Cl.Cl.Cl.Cl.Cl.Cl.N.N.N.N.N.N.N.N.N.N.N.N.N.N.[O-2].[O-2].[Ru+3].[Ru+3].[Ru+4] [RuR, ruthenium red, reference compound]
[1]
  IC50: 0.16 ± 0.03 µM
[2]
  IC50: 7.2 ± 0.55 µM
